Data reported in patent publication US9561289B2, “Peptides for inhibiting tumor growth” (OSPEDALE SAN RAFFAELE SRL, priority 2012, dated 2017).
Marks after values point to notes of the source that are not given here. Where a SMILES comes first, the peptide text is derived from it. Bridges are numbered along the chain shown (N, C = ends).

What was measured:
α5β1 = biological target: T1, α5β1 (Homo sapiens, UniProt P05556+P08648); test: Competitive integrin binding assay (isoDGR/STV-HRP) on α5β1-coated plates; conditions: number in parenthesis
T1 construct: purchased Immunological Sciences (Rome, Italy)
Procedure: (§1) A conjugate consisting of biotinylated acetyl-Ciso[…] (SEQ ID NO:36) peptide complexed with streptavidin-peroxidase conjugate (isoDGR/STV-HRP) was first prepared as described previously. […] Each mixture was then added to microtiter plates coated with integrins (αvβ3, αvβ5, αvβ6, […], or α5β1) and incubated for 2 h at room temperature. After washing, each well was incubated with 70 μl of chromogenic solution (o-phenylenediamine dihydrochloride) for 20 min, at room temperature. The chromogenic reaction was stopped by adding an equal volume of 1 N sulfuric acid. The absorbance at 490 nm was then measured using a microtiter plate reader.
(§2) The binding affinity and selectivity of each peptide for different integrins were then analyzed by competitive binding assay, using αvβ3-, αvβ5-, αvβ6-, αvβ8- and α5β1-coated plates and isoDGR/STV-HRP, an ac-isoDGR-2C/peroxidase complex, as competitor.

αvβ5 = biological target: T2, αvβ5 (Homo sapiens, UniProt P06756+P18084); test: Competitive integrin binding assay (isoDGR/STV-HRP) on αvβ5-coated plates; conditions: number in parenthesis
T2 construct: purchased Immunological Sciences (Rome, Italy)
Procedure: as §1, §2

αvβ8 = biological target: T3, αvβ8 (Homo sapiens, UniProt P06756+P26012); test: Competitive integrin binding assay (isoDGR/STV-HRP) on αvβ8-coated plates; conditions: number in parenthesis
T3 construct: purchased R&D System (Minneapolis, Minn.)
Procedure: as §1, §2

αvβ3 = biological target: T4, αvβ3 (Homo sapiens, UniProt P05106+P06756); test: Competitive integrin binding assay (isoDGR/STV-HRP) on αvβ3-coated plates; conditions: number in parenthesis
T4 construct: purchased Immunological Sciences (Rome, Italy)
Procedure: as §1, §2

αvβ6 = biological target: T5, αvβ6 (Homo sapiens, UniProt P06756+P18564); test: Competitive integrin binding assay (isoDGR/STV-HRP) on αvβ6-coated plates; conditions: number in parenthesis
T5 construct: purchased R&D System (Minneapolis, Minn.)
Procedure: as §1, §2

[1] = test system: EA.hy926 endothelial cells; test: Endothelial cell adhesion to vitronectin-coated plates; assay type: cell-based, human; conditions: EA.hy926, substance added to supernatant
Procedure: Endothelial cell (EA.hy926) adhesion to microtiter plates coated with human vitronectin was carried out as described ([25]). IsoDGR#1 and isoDGR#3 were added to the supernatant during cell adhesion. […] Mean±S.E (n=3).
Cell adhesion was quantified by spectrophotometric measurement (A570 nm).

[2] = test system: CD13-negative MCF-7 cells; test: Binding of NGR peptide/Qdot to CD13-negative cells (fluorescence microscopy); assay type: cell-based, human
Procedure: (§3) (B) Binding of head-to-tail cyclized NGR peptides and disulphide constrained NGR peptide (ac-NGR-2C-TNF1-11, corresponding to acetylated-[…]) (SEQ ID NO:33) conjugated to fluorescent nanoparticles (Qdot) to HT-1080, human umbilical vein cells (HUVECs), and MCF-7 cells. NGR#/Qdots were prepared using the sulfo-SMCC linker (black, bars), whereas ac-NGR-2C-TNF1-11/Qdot were prepared using the BS3 linker (white, bars). Linker-Qdot, i.e. lacking the peptide, are indicated as None. Quantification of staining intensity was performed by using the Photoshop software. Six images were analyzed for each condition. Representative images are shown. Magnification, ×400; scale bar, 20 μm; red, Qdot; blue, nuclear staining with DAPI.
(§4) The binding of NGR-peptide/Qdot conjugates to HT-1080, HUVECs and MCF-7, was analyzed as follows: the cells were grown in chamber slides (3-4×10^4 cell/well, plated 48 h before the experiment). After washing with DMEM containing 1% fetal bovine serum (binding buffer), each NGR-peptide/Qdot conjugate (3-10 nM, in binding buffer) was added to the cells and left to incubate for 2 h at 37° C. in 5% CO2. […] The cells were then analyzed using an Axioscop 40 FL microscope (Carl Zeiss, Germany) equipped with AxioCam MRc5 digital camera and Axiovison software (Carl Zeiss).

[3] = test system: CD13-positive (HT-1080 and HUVECs) cells; test: Binding of NGR peptide/Qdot to CD13-positive cells (fluorescence microscopy); assay type: cell-based, human; conditions: 2 h at 37° C.
Procedure: as §3, §4

WEHI-164 fibrosarcoma = test: Tumor growth in WEHI-164 fibrosarcoma-bearing mice; assay type: in vivo; conditions: WEHI-164 model, i.p., biweekly, 0.032 to 20 μg

| Compound | ratio of integrin Ki/αvβ3 Ki (α5β1) (α5β1) | ratio of integrin Ki/αvβ3 Ki (αvβ5) (αvβ5) | ratio of integrin Ki/αvβ3 Ki (αvβ8) (αvβ8) | ratio of integrin Ki/αvβ3 Ki (αvβ3) (αvβ3) | ratio of integrin Ki/αvβ3 Ki (αvβ6) (αvβ6) | inhibition of endothelial cell adhesion to vitronectin [1] | binding to CD13-negative cells [2] | binding to CD13-positive cells [3] | tumor growth (WEHI-164 fibrosarcoma) |
| --- | --- | --- | --- | --- | --- | --- | --- | --- | --- |
| N=C(N)NCCC[C@@H]1NC(=O)CNC(=O)C[C@@H](C(=O)O)NC(=O)[C@H](CS)NC(=O)CNC(=O)CNC1=O [isoDGR#3, c(CisoDGRGG)] (GRGGCD-OH; lactam N-6) | (0.5) | (1) | (1.2) | (1) | (1.3) | could efficiently inhibit endothelial cell adhesion |  |  |  |
| N=C(N)NCCC[C@@H]1NC(=O)CNC(=O)C[C@@H](C(=O)O)NC(=O)CNC(=O)[C@H](CS)NC(=O)CNC1=O [isoDGR#1, c(CGisoDGRG)] (GRGCGD-OH; lactam N-6) | (3) | (2) |  | (1)^c | (14) | could efficiently inhibit endothelial cell adhesion |  |  |  |
| NGR#3-Qdot: NGR#3 coupled to sulfo-SMCC-activated Qdot fluorescent nanoparticles (cyclo(CNGRGG); not fully specified (residue 1); also: linker joined to Qdot605 nanoparticle) |  |  |  |  |  |  | failed to bind | could bind CD13-positive cells |  |
| CC(C)[C@H]1C(=O)N[C@@H](CCCNC(=N)N)C(=O)NCC(=O)N[C@@H](CC(=O)O)C(=O)N[C@H](Cc2ccccc2)C(=O)N1C [Cilengitide, cyclo(arginylglycyl-aspartyl-D-phenylalanyl-N-methyl-valyl)] |  |  |  |  |  |  |  |  | can delay the growth |
